One compound from US4260805A, “1-Descarboxy-1-ketoester (ketoacid)-prostaglandins” (American Cyanamid Company, priority 1979, dated 1981) can be followed below.

One may read the ED50 as the midpoint of the dose-response relation.

For the assay, the system named is bronchospasms elicited by intravenous injections of acetylcholine. Description: Bronchodilator activity against bronchospasm elicited by acetylcholine, Konzett procedure. Type of assay: in vivo, guinea pigs. The settings on record: Cavia porcellus; spasmogen acetylcholine; three logarithmic cumulative intravenous doses; guinea pig. The method, then:
The compounds of this invention are useful as bronchodilators for the treatment of asthma and chronic bronchitis. Bronchodilator activity is determined in guinea pigs against bronchospasms elicited by intravenous injections of 5-hydroxytryptamine, histamine or acetylcholine by the Konzett procedure. [See J. Lulling, P. Lievens, F. El Sayed and J. Prignot, Arzneimittel-Forschung, 18, 955 (1968).]
In Table which follows bronchodilator activity for representative compounds of this invention against one or more of three spasmogenic agents is expressed as an ED50 determined from the results obtained with three logarithmic cummulative intravenous doses. In this assay, these compounds of this invention provide an effect of longer duration than does natural 1-PGE1 or 1-PGE2.

`CCCCCC(C)(O)/C=C/[C@H]1[C@H](O)CC(=O)[C@@H]1CCCCCCC(=O)C(=O)OCC` (relative stereo) [dl-1,9-dioxo-1-carbethoxy-11α,15-dihydroxy-15-methyl-13-trans-prostene] gave a 50% effective dose (ED50) of more than 3.2 mg/kg.
